Our source for the inhibition and Inhibition in % values is US9315490B2, “2,5-substituted pyrimidines” (Grünenthal GmbH, priority 2014, dated 2016).

The assay has as its target T1, human PDE4B1 (Homo sapiens, UniProt Q07343).
T1 construct: host or cells: Sf9 cells
In words: cAMP HTRF assay to determine the activity of hPDE4B1. The format is biochemical. The following applies: inhibition of PDE4B at a test concentration of 1 μM. As for the experimental part:
Biological Testing cAMP HTRF® Assay to Determine the Activity of hPDE4B1
The inhibiting effect of the compounds on the enzyme activity of human PDE4B1 was measured by the quantification of 5′-adenosine monophosphate (5′-AMP), which is formed from 3′,5′-cyclic adenosine monophosphate (cAMP). Human recombinant enzyme, expressed in Sf9 cells, and the HTRF (homogeneous time-resolved fluorescence) detection method were used in the assay.
The test compound or water (control) was mixed with the human recombinant PDE4B1 enzyme (4.8 U) in a buffer consisting of 44.4 mM tris-HCl, 5.28 mM MgCl2, 2.64 mM DTT and 0.044% Tween 20 (pH 7.8). After adding the cAMP enzyme substrate (final concentration 40 nM), the mixture was incubated for 30 minutes at room temperature. Then a fluorescence acceptor (Dye2 marked with cAMP), a fluorescence donor (anti-cAMP antibody marked with a europium cryptate) and the non-specific phosphodiesterase inhibitor IBMX (3-isobutyl-1-methylxanthine; final concentration 1 mM) were added. After 60 minutes the fluorescence transfer, which correlates with the amount of remaining cAMP, was measured with a microplate reader (Rubystar, BMG) at λex=337 nm, λem=620 nm and λem=665 nm. The enzyme activity was calculated from the quotient formed from the measured signal at 665 nm and that at 620 nm. The result was expressed as the percentage inhibition of enzyme activity of the control (without PDE4 inhibitor). The enzyme was omitted for measurement of the basal control. IC50 values (IC50=concentration causing a half-maximal inhibition of control specific activity) were derived from dose response measurements with eight different concentrations (n=2; N=1-3).
Literature: N. Saldou et al., Comparison of recombinant human PDE4 isoforms: interaction with substrate and inhibitors, Cell. Signal. Vol. 10, No. 6, 427-440, 1998
On the technique in general: TR-FRET usually uses a lanthanide donor and a delayed reading to cut background.

Structures are written as SMILES.

T1 sequence (Q07343 whole entry): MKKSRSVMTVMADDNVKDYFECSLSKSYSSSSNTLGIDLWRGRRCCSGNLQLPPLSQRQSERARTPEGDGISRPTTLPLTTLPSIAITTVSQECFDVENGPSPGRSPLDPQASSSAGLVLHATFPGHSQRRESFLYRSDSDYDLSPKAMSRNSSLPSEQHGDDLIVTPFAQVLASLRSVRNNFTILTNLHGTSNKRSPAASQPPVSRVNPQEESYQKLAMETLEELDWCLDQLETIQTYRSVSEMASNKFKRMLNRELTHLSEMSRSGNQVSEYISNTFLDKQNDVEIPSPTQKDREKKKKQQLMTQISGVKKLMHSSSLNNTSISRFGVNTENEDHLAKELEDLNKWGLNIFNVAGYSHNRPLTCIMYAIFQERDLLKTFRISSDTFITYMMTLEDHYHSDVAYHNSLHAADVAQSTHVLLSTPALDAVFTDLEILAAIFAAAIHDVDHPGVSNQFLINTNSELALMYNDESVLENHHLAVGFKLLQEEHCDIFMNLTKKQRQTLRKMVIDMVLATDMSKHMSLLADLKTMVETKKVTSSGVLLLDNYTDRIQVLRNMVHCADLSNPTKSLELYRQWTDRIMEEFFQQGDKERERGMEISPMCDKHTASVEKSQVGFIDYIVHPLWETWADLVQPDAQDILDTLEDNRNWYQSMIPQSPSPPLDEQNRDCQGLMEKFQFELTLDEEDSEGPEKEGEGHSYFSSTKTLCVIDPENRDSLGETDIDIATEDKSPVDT

As for `Cc1cccc(-c2cnc(-n3cc([S+](C)[O-])c4ccc(C(=O)N5CCOCC5)cc43)nc2)c1` (single isomer, unassigned) [Example 154, (3-(Methylsulfinyl)-1-(5-(m-tolyl)pyrimidin-2-yl)-1H-indol-6-yl)(morpholino)methanone], the inhibition – broadly, the relative decrease from the control value, in per cent – at 1 µM turned out to be 98%.

`C[C@@H]1COCCN1C(=O)c1ccc2c([S+](C)[O-])cn(-c3ncc(-c4ccccc4F)cn3)c2c1` (stereo partly drawn) [Example 179, (1-(5-(2-Fluorophenyl)pyrimidin-2-yl)-3-(methylsulfinyl)-1H-indol-6-yl)((R)-3-methylmorpholino)methanone]: the inhibition at 1 µM was determined as 90%.

Regarding `COCCN1CCN(C(=O)c2ccc3c([S+](C)[O-])cn(-c4ncc(-c5ccccc5F)cn4)c3c2)CC1` (stereo not drawn) [Example 392, (1-(5-(2-Fluorophenyl)pyrimidin-2-yl)-3-(methylsulfinyl)-1H-indol-6-yl)(4-(2-methoxyethyl)piperazin-1-yl)methanone], the inhibition at 1 µM was 0%.

For `CS(=O)(=O)c1cn(-c2ncc(-c3cc(C#N)ccc3F)cn2)c2cc(C(=O)N3CC[C@@H](N)C3)ccc12` [Example 229, (R)-3-(2-(6-(3-Aminopyrrolidine-1-carbonyl)-3-(methylsulfonyl)-1H-indol-1-yl)pyrimidin-5-yl)-4-fluorobenzonitrile], the inhibition at 1 µM stood at 106%.

For the molecule `Cc1cccc(-c2cnc(-n3cc([S+](C)[O-])c4ccc(C(=O)N5CCOCC5)cc43)nc2)n1` (stereo not drawn) [Example 180, (1-(5-(6-Methylpyridin-2-yl)pyrimidin-2-yl)-3-(methylsulfinyl)-1H-indol-6-yl)(morpholino)methanone], the inhibition at 1 µM worked out at 99%.

Turning to `C[S+]([O-])c1cn(-c2ncc(-c3cccc(S(C)(=O)=O)c3)cn2)c2cc(C(=O)N3CCOCC3)ccc12` (stereo not drawn) [Example 36, (3-(Methylsulfinyl)-1-(5-(3-(methylsulfonyl)phenyl)pyrimidin-2-yl)-1H-indol-6-yl)(morpholino)methanone], the inhibition at 1 µM is 90%.

For the molecule `CCOC(=O)N1CCN(C(=O)c2ccc3c([S+](C)[O-])cn(-c4ncc(-c5ccccc5F)cn4)c3c2)CC1` (stereo not drawn) [Example 394, Ethyl 4-(1-(5-(2-fluorophenyl)pyrimidin-2-yl)-3-(methylsulfinyl)-1H-indole-6-carbonyl)piperazine-1-carboxylat], the inhibition at 1 µM worked out at 0%.

On to `CN(C)C1CCN(C(=O)c2ccc3c([S+](C)[O-])cn(-c4ncc(-c5ccccc5F)cn4)c3c2)CC1` (stereo not drawn) [Example 387, (4-(Dimethylamino)piperidin-1-yl)(1-(5-(2-fluorophenyl)pyrimidin-2-yl)-3-(methylsulfinyl)-1H-indol-6-yl)methanone], for which the inhibition at 1 µM amounted to 8%.

On to `C[S+]([O-])c1cn(-c2ncc(-c3ccccn3)cn2)c2cc(C(=O)N3C[C@@H]4C[C@H]3CN4)ccc12` (stereo partly drawn) [Example 244, (1S,4S)-2,5-Diazabicyclo[2.2.1]heptan-2-yl(3-(methylsulfinyl)-1-(5-(pyridin-2-yl)pyrimidin-2-yl)-1H-indol-6-yl)methanone], for which the inhibition at 1 µM came out at 102%.

Regarding `CC(O)CN(C)C(=O)c1ccc2c([S+](C)[O-])cn(-c3ncc(-c4ccccc4F)cn3)c2c1` (stereo not drawn) [Example 168, 1-(5-(2-Fluorophenyl)pyrimidin-2-yl)-N-(2-hydroxypropyl)-N-methyl-3-(methylsulfinyl)-1H-indole-6-carboxamide], the inhibition at 1 µM came out at 43%.

Consider `CN(C(=O)c1ccc2c([S+](C)[O-])cn(-c3ncc(-c4ccccc4F)cn3)c2c1)C1(CO)CC1` (stereo not drawn) [Example 170, 1-(5-(2-Fluorophenyl)pyrimidin-2-yl)-N-(1-(hydroxymethyl)cyclopropyl)-N-methyl-3-(methylsulfinyl)-1H-indole-6-carboxamide], for which the inhibition at 1 µM stood at 54%.

On to `C[S+]([O-])c1cn(-c2ncc(-c3ccccc3F)cn2)c2cc(C(=O)N3CCOCC3)ccc12` (single isomer, unassigned) [Example 165, (1-(5-(2-Fluorophenyl)pyrimidin-2-yl)-3-(methylsulfinyl)-1H-indol-6-yl)(morpholino)methanone], for which the inhibition at 1 µM was determined as 105%.

`C[S+]([O-])c1cn(-c2ncc(-c3cccnc3)cn2)c2cc(C(=O)N3CCOCC3)ccc12` (stereo not drawn) [Example 49, (3-(Methylsulfinyl)-1-(5-(pyridin-3-yl)pyrimidin-2-yl)-1H-indol-6-yl)(morpholino)methanone]: the inhibition at 1 µM is 72%.

For `Cc1ccc(F)c(-c2cnc(-n3cc(S(C)(=O)=O)c4ccc(C(=O)N5CC[C@@H](N)C5)cc43)nc2)c1` [Example 231, (R)-(3-Aminopyrrolidin-1-yl)(1-(5-(2-fluoro-5-methylphenyl)pyrimidin-2-yl)-3-(methylsulfonyl)-1H-indol-6-yl)methanone], the inhibition at 1 µM came out at 121%.

Take `C[S+]([O-])c1cn(-c2ncc(-c3ccccc3)cn2)c2cc(C(=O)N3CC[C@@H](N)C3)ccc12` (stereo partly drawn) [Example 223, ((R)-3-Aminopyrrolidin-1-yl)(3-(methylsulfinyl)-1-(5-phenylpyrimidin-2-yl)-1H-indol-6-yl)methanone]: the inhibition at 1 µM is 89%.

Take `C[S+]([O-])c1cn(-c2ncc(-c3ccccc3F)cn2)c2cc(C(=O)N3CCC(CO)CC3)ccc12` (stereo not drawn) [Example 380, (1-(5-(2-Fluorophenyl)pyrimidin-2-yl)-3-(methylsulfinyl)-1H-indol-6-yl)(4-(hydroxymethyl)piperidin-1-yl)methanone]: the inhibition at 1 µM stood at 9%.

`CS(=O)(=O)c1cn(-c2ncc(-c3ccccc3)cn2)c2cc(C(=O)N3C[C@H]4C[C@@H]3CO4)ccc12` [Example 237, (1R,4R)-2-Oxa-5-azabicyclo[2.2.1]heptan-5-yl(3-(methylsulfonyl)-1-(5-phenylpyrimidin-2-yl)-1H-indol-6-yl)methanone]: the inhibition at 1 µM was determined as 36%.

Take `CC(O)c1cn(-c2ncc(-c3ccccc3F)cn2)c2cc(C(=O)N3CCOCC3)ccc12` (stereo not drawn) [Example 28, (1-(5-(2-fluorophenyl)pyrimidin-2-yl)-3-(1-hydroxyethyl)-1H-indol-6-yl)(morpholino)methanone]: the inhibition at 1 µM stood at 98%.

For the molecule `CC1CCN(C(=O)c2ccc3c([S+](C)[O-])cn(-c4ncc(-c5ccccc5F)cn4)c3c2)CC1` (stereo not drawn) [Example 363, (1-(5-(2-Fluorophenyl)pyrimidin-2-yl)-3-(methylsulfinyl)-1H-indol-6-yl)(4-methylpiperidin-1-yl)methanone], the inhibition at 1 µM was determined as 41%.

In the case of `C[S+]([O-])c1cn(-c2ncc(-c3ccc(O)cc3)cn2)c2cc(C(=O)N3CCOCC3)ccc12` (stereo not drawn) [Example 86, (1-(5-(4-Hydroxyphenyl)pyrimidin-2-yl)-3-(methylsulfinyl)-1H-indol-6-yl)(morpholino)methanone], the inhibition at 1 µM was determined as 99%.

Regarding `C[S+]([O-])c1cn(-c2ncc(-c3ccccc3F)cn2)c2cc(C(=O)N3CCC[C@@H](O)C3)ccc12` (stereo partly drawn) [Example 80, (1-(5-(2-Fluorophenyl)pyrimidin-2-yl)-3-(methylsulfinyl)-1H-indol-6-yl)((R)-3-hydroxypiperidin-1-yl)methanone], the inhibition at 1 µM is 96%.

With `C[S+]([O-])c1cn(-c2ncc(-c3ccccc3)cn2)c2cc(C(=O)N3C[C@@H]4C[C@H]3CN4)ccc12` (stereo partly drawn) [Example 233, (1S,4S)-2,5-Diazabicyclo[2.2.1]heptan-2-yl(3-(methylsulfinyl)-1-(5-phenylpyrimidin-2-yl)-1H-indol-6-yl)methanone], the inhibition at 1 µM came to 103%.

`CN(CC(=O)O)C(=O)c1ccc2c([S+](C)[O-])cn(-c3ncc(-c4ccccc4F)cn3)c2c1` (stereo not drawn) [Example 173, 2-(1-(5-(2-Fluorophenyl)pyrimidin-2-yl)-N-methyl-3-(methylsulfinyl)-1H-indole-6-carboxamido)acetic acid]: the inhibition at 1 µM is 70%.

Turning to `CC(C)N(C(=O)c1ccc2c([S+](C)[O-])cn(-c3ncc(-c4ccccc4F)cn3)c2c1)C(C)C` (stereo not drawn) [Example 366, 1-(5-(2-Fluorophenyl)pyrimidin-2-yl)-N,N-diisopropyl-3-(methylsulfinyl)-1H-indole-6-carboxamide], the inhibition at 1 µM worked out at 30%.

As for `C[S+]([O-])c1cn(-c2ncc(-c3ccccc3F)cn2)c2cc(C(=O)N3CCOC(C)(C)C3)ccc12` (stereo not drawn) [Example 383, (2,2-Dimethylmorpholino)(1-(5-(2-fluorophenyl)pyrimidin-2-yl)-3-(methylsulfinyl)-1H-indol-6-yl)methanone], the inhibition at 1 µM turned out to be 68%.

As to `COc1cccc(-c2cnc(-n3cc(S(C)(=O)=O)c4ccc(C(=O)N5CCOCC5)cc43)nc2)c1` [Example 159, (1-(5-(3-Methoxyphenyl)pyrimidin-2-yl)-3-(methylsulfonyl)-1H-indol-6-yl)(morpholino)methanone], the inhibition at 1 µM amounted to 98%.

Under “1 µM”, `CC(O)c1cn(-c2ncc(-c3ccccc3F)cn2)c2cc(C(=O)N3CCOCC3)ccc12` (single isomer, unassigned) [Example 252, (1-(5-(2-Fluorophenyl)pyrimidin-2-yl)-3-(1-hydroxyethyl)-1H-indol-6-yl)(morpholino)methanone] displayed an Inhibition in % of 97%.
